Here are results for one compound from patent US9938335B2, “Glucagon and GLP-1 co-agonist compounds” (Eli Lilly and Company, priority 2015, dated 2018).

Structures are written as SMILES. Starred links: 1 amine or outer side, 2 acyl side, 3 side chain; linkers in the order of their positions; H or OH if unused. Non-standard residues stand in square brackets, D forms with d. Residues, ends and D or L forms follow the SMILES beside them. Groups on a side chain read outwards from the residue. *: point of attachment. C18 diacid = O=C(O)CCCCCCCCCCCCCCCCC(=O)*; γGlu = O=C(O)[C@H](CCC(=O)[*:2])N[*:1]; AEEA = NCCOCCOCC(=O)O; Aib = CC(C)(N)C(=O)O

The data set can be described thus: Viscosity (Rheosense mVroc Viscometer). It is filed as physicochemical. The settings on record: approximately 10 mg/mL peptide in 10 mM Tris + 3 mg/mL m-cresol at pH 8.0; 25° C.; shear rate 1934 s^−1. As to the method: Viscosity of compounds of the present invention is measured in a Rheosense mVroc Viscometer with the following settings:
(a) Syringe size: 500 μL syringe
(b) Flow Rate: 100 μL/min flow rate
(c) Average Temperature: 25° C.
(d) Shear Rate: 1934 s^−1
Dry powder (compound) is weighed out, dissolved in water as a cloudy precipitate, and titrated to approximately pH 8.0 with 1N NaOH. The solution is sonicated and swirled by hand until peptide is in solution. Samples are sterile filtered (0.22 μm PVDF filters). Samples are then analyzed by UV-Vis to assess stock solution concentrations. Solutions are diluted to final concentration using 3× m-cresol in 10 mM Tris pH 8.0 buffer to final concentrations of approximately 10 mg/mL peptide by weight in 10 mM Tris+3 mg/mL m-cresol at pH 8.0. Samples were filtered through 0.22 μm filters immediately prior to viscosity analysis. 25 μL of sample are removed to verify concentration by RP-HPLC before and after analysis.
Water and buffer control samples are measured before and after each sample is analyzed. The instrument is washed with buffer (3×) in between analysis of each sample. The samples are loaded into individual syringes and analyzed. The first measurement is not included in the final calculation to allow for equilibration with the system. Samples are then analyzed in triplicate (n=3).
The viscosity of Compounds 1-4 was measured essentially as described in this assay.

For the compound `CC(C)C[C@H](NC(=O)[C@H](CC(C)C)NC(=O)[C@H](Cc1c[nH]c2ccccc12)NC(=O)[C@H](CCC(=O)O)NC(=O)[C@@H](NC(=O)[C@H](Cc1ccccc1)NC(=O)[C@H](CCC(=O)O)NC(=O)[C@H](CCCCNC(=O)COCCOCCNC(=O)COCCOCCNC(=O)CC[C@H](NC(=O)CC[C@H](NC(=O)CCCCCCCCCCCCCCCCC(=O)O)C(=O)O)C(=O)O)NC(=O)[C@H](C)NC(=O)[C@H](CCCCN)NC(=O)[C@H](CCCCN)NC(=O)[C@H](CCC(=O)O)NC(=O)[C@H](CC(=O)O)NC(=O)[C@H](CC(C)C)NC(=O)[C@H](Cc1ccc(O)cc1)NC(=O)[C@H](CCCCN)NC(=O)[C@H](CO)NC(=O)[C@H](Cc1ccc(O)cc1)NC(=O)[C@H](CC(=O)O)NC(=O)[C@H](CO)NC(=O)[C@@H](NC(=O)[C@H](Cc1ccccc1)NC(=O)[C@@H](NC(=O)CNC(=O)[C@H](CCC(N)=O)NC(=O)C(C)(C)NC(=O)[C@@H](N)Cc1c[nH]cn1)[C@@H](C)O)[C@@H](C)O)C(C)C)C(=O)N[C@@H](CO)C(=O)NCC(=O)NCC(=O)N1CCC[C@H]1C(=O)N[C@@H](CO)C(=O)N[C@@H](CO)C(=O)NCC(N)=O` [Compound 3] (H-H[Aib]QGTFTSDYSKYLDEKKAK([AEEA-AEEA-γGlu-γGlu-C18 diacid])EFVEWLLSGGPSSG-NH2; N-terminus assumed), the “500 μL syringe Viscosity” value was 1.03 cP or mPa-s.
